Test results reported in patent publication US6197761A, “17β-2-oxo-tetrahydrofuranyl)-carbothioic acid ester, -carboxylic acid ester and -carboxylic acid amide androstane derivatives” (Glaxo Wellcome Inc., priority 1995, dated 2001).

Assays:
[1] = target: T1, Human Glucocorticoid Receptor (Homo sapiens, UniProt P04150); test: functional in vitro glucocorticoid assay, sPAP reporter under MMTV LTR in transfected Hela cells; type: cell-based; conditions: sPAP transcription in transfected Hela cells, 72 hours incubation
T1 construct: endogenous in cells; host or cells: HeLa cells (stably transfected with the sPAP reporter under the MMTV LTR)
T1 sequence (P04150 1-777): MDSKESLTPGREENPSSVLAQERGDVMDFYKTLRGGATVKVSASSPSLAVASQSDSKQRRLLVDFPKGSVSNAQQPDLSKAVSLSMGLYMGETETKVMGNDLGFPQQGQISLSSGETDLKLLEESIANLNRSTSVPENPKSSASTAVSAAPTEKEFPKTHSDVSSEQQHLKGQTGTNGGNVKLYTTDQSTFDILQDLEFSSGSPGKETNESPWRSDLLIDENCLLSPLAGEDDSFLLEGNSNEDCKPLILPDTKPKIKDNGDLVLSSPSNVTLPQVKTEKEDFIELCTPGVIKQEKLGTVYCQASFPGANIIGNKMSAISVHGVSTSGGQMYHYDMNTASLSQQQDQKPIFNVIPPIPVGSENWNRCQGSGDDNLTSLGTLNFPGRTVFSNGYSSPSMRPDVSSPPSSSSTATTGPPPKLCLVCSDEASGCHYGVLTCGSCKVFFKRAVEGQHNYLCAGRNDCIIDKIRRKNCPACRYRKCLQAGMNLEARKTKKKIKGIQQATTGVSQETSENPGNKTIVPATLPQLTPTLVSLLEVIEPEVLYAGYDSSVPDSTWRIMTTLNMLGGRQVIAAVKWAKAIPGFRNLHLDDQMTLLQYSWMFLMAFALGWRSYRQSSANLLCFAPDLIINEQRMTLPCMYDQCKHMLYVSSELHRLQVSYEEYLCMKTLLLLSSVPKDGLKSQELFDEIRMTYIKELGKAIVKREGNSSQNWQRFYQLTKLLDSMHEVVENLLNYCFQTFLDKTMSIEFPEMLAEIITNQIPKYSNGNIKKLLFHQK
Source text: The functional assay used was a modification of the method described by T. S Berger et al, of J. of Steroid Biochem. Molec. Biol. 1992, 41 (3-8), 733-738, "Interaction of Glucocorticoid analogues with the Human Glucocorticoid Receptor".
Thus, Hela cells were stably transfected with a detectable reporter gene (secreted placental alkaline phosphatase, sPAP) under the control of a glucocorticoid response promoter (the LTR of the mouse mammary tumour virus, MMTV).
Various concentrations of standard (dexamethasone) or compounds of the invention were incubated with transfected Hela cells for 72 hours. At the end of the incubation, substrate ([…]) for sPAP was added and the product measured by a spectrophotometric method. Increased absorbance reflected increased sPAP transcription and concentration-response lines were constructed such that EC50 -values could be estimated.

rat ear oedema = test: Anti-inflammatory activity: inhibition of rat ear oedema (croton oil); type: in vivo; conditions: topical to ear with 5% croton oil in acetone, male rats, 6 hours
Method: (i) Anti-inflammatory Activity--Inhibition of rat ear oedema
The test compounds are dissolved in acetone and 40 ul containing 5% croton oil is applied to the inner surface of each of the ears of 60-80 g male rats. Animals are killed 6 hours later and the ears are removed. Standard size (0.5 cm diameter) discs are punched out and the discs weighed. Mean weight of the ear discs is calculated and from this percentage inhibition of ear inflammation in relation to croton oil alone treated ears are calculated.

[2] = Hydrolysis in Blood (stability in human plasma); type: in vitro ADME

SMILES | EC50 [1] | further results
CC(=O)O[C@]1(C(=O)SC2CCOC2=O)[C@H](C)C[C@H]2[C@@H]3C[C@H](F)C4=CC(=O)C=C[C@]4(C)[C@@]3(F)[C@@H](O)C[C@@]21C (stereo partly drawn) [Example 6, 17α-Acetyloxy-α,9α-difluoro-11β-hydroxy-16α-methyl-3-oxo-androsta-1,4-diene-17β-carbothioic acid S-(2-oxo-tetrahydro-furan-3-yl) ester] | < 400 nM | –
CCC(=O)O[C@]1(C(=O)SC2CCOC2=O)[C@H](C)C[C@H]2[C@@H]3C[C@H](F)C4=CC(=O)C=C[C@]4(C)[C@@]3(F)[C@@H](O)C[C@@]21C (stereo partly drawn) [Example 1, 6α,9α-Difluoro-11β-hydroxy-16α-methyl-3-oxo-17α-propionyloxy-androsta-1,4-diene-17β-carbothioic acid S-(2-oxo-tetrahydro-furan-3-yl) ester] | < 400 nM | –
CCC[C@@H]1O[C@@H]2C[C@H]3[C@@H]4C[C@H](F)C5=CC(=O)CC[C@]5(C)[C@@]4(F)[C@@H](O)C[C@]3(C)[C@]2(C(=O)SC2CCOC2=O)O1 (single isomer, unassigned) [Example 19 Isomer B, 16α,17α-(R-Butylidenedioxy)-6α,9α-difluoro-11β-hydroxy-3-oxo-androst-4-ene-17β-carbothioic acid S-(2-oxo-tetrahydro-furan-3-yl) ester] | – | % Inhibition (ear inflammation) (rat ear oedema; dose 100 μg): 43%
CCC(=O)O[C@]1(C(=O)SC2CCC(=O)O2)[C@H](C)C[C@H]2[C@@H]3C[C@H](F)C4=CC(=O)C=C[C@]4(C)[C@@]3(F)[C@@H](O)C[C@@]21C (stereo partly drawn) [Example 8, 6α,9α-Difluoro-11β-hydroxy-16α-methyl-3-oxo-17α-propionyloxy-androsta-1,4-diene-11β-carbothioic acid S-(5-oxo-tetrahydro-furan-2-yl) ester] | < 400 nM | –
CC1(C)O[C@@H]2C[C@H]3[C@@H]4C[C@H](F)C5=CC(=O)C=C[C@]5(C)[C@@]4(F)[C@@H](O)C[C@]3(C)[C@]2(C(=O)N[C@H]2CCOC2=O)O1 [Example 15, 6α,9α-Difluoro-11β-hydroxy-16α,17α-isopropylidenedioxy-3-oxo-androsta-1,4-diene-17β-carboxylic acid N-(2-oxo-tetrahydro-furan-3S-yl) amide] | < 400 nM | half-life [2]: < 3 h
CCC[C@@H]1O[C@@H]2C[C@H]3[C@@H]4C[C@H](F)C5=CC(=O)CC[C@]5(C)[C@@]4(F)[C@@H](O)C[C@]3(C)[C@]2(C(=O)SC2CCOC2=O)O1 (single isomer, unassigned) [Example 19, 16α,17α-(R-Butylidenedioxy)-6α,9α-difluoro-11β-hydroxy-3-oxo-androst-4-ene-17β-carbothioic acid S-(2-oxo-tetrahydro-furan-3-yl) ester] | < 400 nM | –
CC1(C)O[C@@H]2C[C@H]3[C@@H]4C[C@H](F)C5=CC(=O)C=C[C@]5(C)[C@@]4(F)[C@@H](O)C[C@]3(C)[C@]2(C(=O)N[C@H]2COC(=O)C2)O1 [Example 24, 6α,9α-Difluoro-11β-hydroxy-16α,17α-isopropylidenedioxy-3-oxo-androsta-1,4-diene-17β-carboxylic acid N-(2-oxo-tetrahydro-furan-4R-yl) amide] | < 400 nM | –
CC1(C)O[C@@H]2C[C@H]3[C@@H]4C[C@H](F)C5=CC(=O)C=C[C@]5(C)[C@@]4(F)[C@@H](O)C[C@]3(C)[C@]2(C(=O)NC2CCOC2=O)O1 (stereo partly drawn) [Example 16, 6α,9α-Difluoro-11β-hydroxy-16α,17α-isopropylidenedioxy-3-oxo-androsta-1,4-diene-17β-carboxylic acid N-(2-oxo-tetrahydro-furan-3-yl) amide] | < 400 nM | half-life [2]: < 3 h
CCC[C@@H]1O[C@@H]2C[C@H]3[C@@H]4C[C@H](F)C5=CC(=O)CC[C@]5(C)[C@@]4(F)[C@@H](O)C[C@]3(C)[C@]2(C(=O)NC2CCOC2=O)O1 (single isomer, unassigned) [Example 22, 16α,17α-(R-Butylidenedioxy)-6α,9α-difluoro-11β-hydroxy-3-oxo-androst-4-ene-17β-carboxylic acid N-(2-oxo-tetrahydro-furan-3-yl) amide] | < 400 nM | half-life [2]: < 3 h
CC1(C)O[C@@H]2C[C@H]3[C@@H]4C[C@H](F)C5=CC(=O)C=C[C@]5(C)[C@@]4(F)[C@@H](O)C[C@]3(C)[C@]2(C(=O)N[C@@H]2CCOC2=O)O1 (single isomer, unassigned) [Example 16 Isomer B, 6α,9α-Difluoro-11β-hydroxy-16α,17α-isopropylidenedioxy-3-oxo-androsta-1,4-diene-17β-carboxylic acid N-(2-oxo-tetrahydro-furan-3-yl) amide] | – | % Inhibition (ear inflammation) (rat ear oedema; dose 10 μg): 42%
CC1(C)O[C@@H]2C[C@H]3[C@@H]4C[C@H](F)C5=CC(=O)C=C[C@]5(C)[C@@]4(F)[C@@H](O)C[C@]3(C)[C@]2(C(=O)N[C@@H]2COC(=O)C2)O1 [Example 23, 6α,9α-Difluoro-11β-hydroxy-16α,17α-isopropylidenedioxy-3-oxo-androsta-1,4-diene-17β-carboxylic acid N-(2-oxo-tetrahydro-furan-4S-yl) amide] | < 400 nM | half-life [2]: < 3 h
CCCC(=O)O[C@]1(C(=O)SC2CCOC2=O)[C@H](C)C[C@H]2[C@@H]3C[C@H](F)C4=CC(=O)C=C[C@]4(C)[C@@]3(F)[C@@H](O)C[C@@]21C (stereo partly drawn) [Example 5, 17α-Butyryloxy-6α,9α-difluoro-11β-hydroxy-16α-methyl-3-oxo-androsta-1,4-diene-17β-carbothioic acid S-(2-oxo-tetrahydro-furan-3-yl) ester] | < 400 nM | –
CCC[C@@H]1O[C@@H]2C[C@H]3[C@@H]4C[C@H](F)C5=CC(=O)CC[C@]5(C)[C@@]4(F)[C@@H](O)C[C@]3(C)[C@]2(C(=O)SC2CCOC2=O)O1 (single isomer, unassigned) [Example 19 Isomer A, 16α,17α-(R-Butylidenedioxy)-6α,9α-difluoro-11β-hydroxy-3-oxo-androst-4-ene-17β-carbothioic acid S-(2-oxo-tetrahydro-furan-3-yl) ester] | – | % Inhibition (ear inflammation) (rat ear oedema; dose 100 μg): 54%
CCC(=O)O[C@]1(C(=O)SC2CCOC2=O)[C@@H](C)C[C@H]2[C@@H]3CCC4=CC(=O)C=C[C@]4(C)[C@@]3(F)[C@@H](O)C[C@@]21C (single isomer, unassigned) [Example 7, 9α-Fluoro-11β-hydroxy-16β-methyl-3-oxo-17α-propionyloxy-androsta-1,4-diene-17β-carbothioic acid S-(2-oxo-tetrahydro-furan-3-yl) ester] | < 400 nM | –
CCC(=O)O[C@]1(C(=O)SC2COC(=O)C2)[C@H](C)C[C@H]2[C@@H]3C[C@H](F)C4=CC(=O)C=C[C@]4(C)[C@@]3(F)[C@@H](O)C[C@@]21C (stereo partly drawn) [Example 9, 6α,9α-Difluoro-11α-hydroxy-16α-methyl-3-oxo-17α-propionyloxy-androsta-1,4-diene-17β-carbothioic acid S-(2-oxo-tetrahydro-furan-4-yl) ester] | < 400 nM | –
CC1(C)O[C@@H]2C[C@H]3[C@@H]4C[C@H](F)C5=CC(=O)C=C[C@]5(C)[C@@]4(F)[C@@H](O)C[C@]3(C)[C@]2(C(=O)SC2CCOC2=O)O1 (single isomer, unassigned) [Example 12, 6α,9α-Difluoro-11β-hydroxy-16α,17α-isopropylidenedioxy-3-oxoandrosta-1,4-diene-17β-carbothioic acid S-(2-oxo-tetrahydro-furan-3-yl) ester] | < 400 nM | –
CCC(=O)O[C@]1(C(=O)SC2CCOC2=O)[C@H](C)C[C@H]2[C@@H]3C[C@H](F)C4=CC(=O)CC[C@]4(C)[C@@]3(F)[C@@H](O)C[C@@]21C (stereo partly drawn) [Example 4] | < 400 nM | –
